Measurements from PubChem BioAssay AID192 (DTP/NCI, 2004).
Values joined by “and” are separate entries in the source; they are usually repeats but may differ in a detail not shown here. Identical values can stand only once. Toxic doses and inconclusive results are not listed. Rule for the calls: active = survival T/C of 150% or more; inactive = T/C below 125% in these data. Peptide text beside a SMILES is read from it.

Tested on: BDF1 mice, B16 melanoma ip, median survival T/C
Test: NCI In Vivo Anticancer Drug Screen. Data for tumor model B16 Melanoma (intraperitoneal) in B6D2F1 (BDF1) mice
Settings: endpoint: median survival time, higher = longer survival
Method in brief: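 The ratio T/C compares compound-treated mice with vehicle-treated controls, using survival or tumor size as the endpoint in a transplantable tumor model.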

[1] = dose: 12.5 mg/kg/injection, schedule: Q01DX009 (ip), vehicle: saline
[2] = dose: 25.0 mg/kg/injection, schedule: Q01DX009 (ip), vehicle: saline
[3] = dose: 50.0 mg/kg/injection, schedule: Q01DX009 (ip), vehicle: saline
[4] = dose: 100.0 mg/kg/injection, schedule: Q01DX009 (ip), vehicle: saline with Tween-80
[5] = dose: 200.0 mg/kg/injection, schedule: Q01DX009 (ip), vehicle: saline with Tween-80
[6] = dose: 100.0 mg/kg/injection, schedule: Q04DX003 (ip), vehicle: saline with Tween-80
[7] = dose: 12.5 mg/kg/injection, schedule: Q01DX009 (ip), vehicle: saline with Tween-80
[8] = dose: 25.0 mg/kg/injection, schedule: Q01DX009 (ip), vehicle: saline with Tween-80
[9] = dose: 50.0 mg/kg/injection, schedule: Q01DX009 (ip), vehicle: saline with Tween-80
[10] = dose: 25.0 mg/kg/injection, schedule: Q01DX009 (ip), vehicle: Klucel (hydroxypropylcellulose) (HPC)
[11] = dose: 50.0 mg/kg/injection, schedule: Q01DX009 (ip), vehicle: Klucel (hydroxypropylcellulose) (HPC)
[12] = dose: 100.0 mg/kg/injection, schedule: Q01DX009 (ip), vehicle: Klucel (hydroxypropylcellulose) (HPC)
[13] = dose: 200.0 mg/kg/injection, schedule: Q01DX009 (ip), vehicle: Klucel (hydroxypropylcellulose) (HPC)

Measured: T/C

OCC1OC(OC2(CO)OC(CO)C(O)C2O)C(O)C(O)C1O (stereo not drawn)
inactive: dose: 3.9 mg/kg/injection, schedule: Q01DX005 (ip), vehicle: saline 104 % of control | dose: 7.81 mg/kg/injection, schedule: Q01DX005 (ip), vehicle: saline 87 % of control | dose: 15.63 mg/kg/injection, schedule: Q01DX005 (ip), vehicle: saline 105 % of control | dose: 31.25 mg/kg/injection, schedule: Q01DX005 (ip), vehicle: saline 104 % of control | dose: 62.5 mg/kg/injection, schedule: Q01DX005 (ip), vehicle: saline 105 % of control | dose: 125.0 mg/kg/injection, schedule: Q01DX005 (ip), vehicle: saline 105 % of control | dose: 250.0 mg/kg/injection, schedule: Q01DX005 (ip), vehicle: saline 109 % of control | dose: 500.0 mg/kg/injection, schedule: Q01DX005 (ip), vehicle: saline 105 % of control | dose: 1000.0 mg/kg/injection, schedule: Q01DX005 (ip), vehicle: saline 104 % of control | dose: 2000.0 mg/kg/injection, schedule: Q01DX005 (ip), vehicle: saline 102 % of control

CN(C)NCCN1CCN(CCCN2c3ccccc3Sc3ccc(C(F)(F)F)cc32)CC1
inactive: dose: 3.75 mg/kg/injection, schedule: Q01DX009 (ip), vehicle: saline 93 % of control | dose: 7.5 mg/kg/injection, schedule: Q01DX009 (ip), vehicle: saline 112 % of control

NNC(=O)c1ccccc1
inactive: [1] 105 % of control | [2] 97 % of control | [3] 88 % of control

NC(=O)NC1CCCC1
inactive: [4] 106 % of control | [5] 112 % of control | dose: 400.0 mg/kg/injection, schedule: Q01DX009 (ip), vehicle: saline with Tween-80 102 % of control

NC(N)=NCCCC(N)C(=O)NC(CCC(=O)O)C(=O)O (stereo not drawn) (H-Arg-Glu-OH; configuration not given here)
inactive: [2] 108 % of control | [3] 96 % of control | dose: 100.0 mg/kg/injection, schedule: Q01DX009 (ip), vehicle: saline 104 % of control | dose: 200.0 mg/kg/injection, schedule: Q01DX009 (ip), vehicle: saline 102 % of control | dose: 400.0 mg/kg/injection, schedule: Q01DX009 (ip), vehicle: saline 101 % of control

CC(=O)c1ccccc1OCC(O)CN1CCN(c2cccc(C(F)(F)F)c2)CC1 (stereo not drawn)
inactive: [6] 102 % of control | dose: 200.0 mg/kg/injection, schedule: Q04DX003 (ip), vehicle: saline with Tween-80 93 % of control | dose: 400.0 mg/kg/injection, schedule: Q04DX003 (ip), vehicle: saline with Tween-80 91 % of control

CCN1CSC(=S)N(CC)C1
inactive: [7] 104 % of control | [8] 102 % of control | dose: 25.0 mg/kg/injection, schedule: Q04DX003 (ip), vehicle: saline with Tween-80 89 % of control | [9] 97 % of control | dose: 50.0 mg/kg/injection, schedule: Q04DX003 (ip), vehicle: saline with Tween-80 100 % of control | [4] 100 % of control | [6] 92 % of control

NC(CS/C(Cl)=C/Cl)C(=O)O (stereo not drawn)
inactive: dose: 12.0 mg/kg/injection, schedule: Q01DX009 (ip), vehicle: other 102 % of control | dose: 18.0 mg/kg/injection, schedule: Q01DX009 (ip), vehicle: other 90 % of control | dose: 27.0 mg/kg/injection, schedule: Q01DX009 (ip), vehicle: other 90 % of control

[Cl][Pt][Cl].[NH-]C(CO)C(=O)O (stereo not drawn)
active: dose: 12.5 mg/kg/injection, schedule: Q01DX009 (ip), vehicle: water 151 % of control

Nc1cc2nc3ccccc3sc-2cc1=O
inactive: [9] 93 % of control | [4] 98 % of control | [5] 94 % of control

CC(=O)C(=O)NC1/C=C(C)\C=C/C(O)C/C=C(C)\C=C/C(O)CC2OC(=O)C1(C)C(=O)C2C (stereo not drawn)
inactive: [10] 100 % of control | [11] 118 % of control | [12] 117 % of control | [13] 112 % of control

Cc1cc(N(CC(C)Br)CC(C)Br)ccc1N=Nc1ccccc1C(=O)O (stereo not drawn)
active: [7] 165 % of control and 185 % of control

CCS(=O)(=O)OCCCl
inactive: [8] 104 % of control | [9] 100 % of control | [4] 103 % of control

C[n+]1c(-c2cccc(OCCOCCOc3cccc(-c4c5cc(N)ccc5c5ccc(N)cc5[n+]4C)c3)c2)c2cc(N)ccc2c2ccc(N)cc21
inactive: dose: 0.5 mg/kg/injection, schedule: Q01DX009 (ip), vehicle: water 110 % of control

COc1cccc2c1C(=N)c1c(O)c3c(c(O)c1C2=O)C[C@@](O)(C(C)=O)C[C@@H]3OC1CC(N)C(O)C(C)O1 (stereo partly drawn)
active: dose: 1.0 mg/kg/injection, schedule: Q01DX009 (ip), vehicle: water 177 % of control | dose: 1.56 mg/kg/injection, schedule: Q01DX001 (ip), vehicle: water 163 % of control | dose: 2.0 mg/kg/injection, schedule: Q01DX009 (ip), vehicle: water 205 % of control | dose: 3.13 mg/kg/injection, schedule: Q01DX001 (ip), vehicle: water 159 % of control | dose: 4.0 mg/kg/injection, schedule: Q01DX009 (ip), vehicle: water 201 % of control | dose: 6.25 mg/kg/injection, schedule: Q01DX001 (ip), vehicle: water 166 % of control and 168 % of control and 185 % of control | dose: 12.5 mg/kg/injection, schedule: Q01DX001 (ip), vehicle: water 164 % of control and 201 % of control
inactive: dose: 12.0 mg/kg/injection, schedule: Q01DX001 (ip), vehicle: water 94 % of control | dose: 20.0 mg/kg/injection, schedule: Q01DX001 (ip), vehicle: water 95 % of control

CCNCCCCCCNCC
inactive: [1] 98 % of control | [2] 90 % of control

CC(c1c[nH]c2ccccc12)N1CCCCC1 (stereo not drawn)
inactive: dose: 12.5 mg/kg/injection, schedule: Q01DX009 (ip), vehicle: Klucel (hydroxypropylcellulose) (HPC) 97 % of control | [10] 95 % of control | [11] 98 % of control

C/C(=N\NC(N)=O)c1cccc(/C(C)=N/NC(N)=O)n1
inactive: dose: 6.25 mg/kg/injection, schedule: Q01DX009 (ip), vehicle: saline with Tween-80 91 % of control | [7] 96 % of control | [8] 86 % of control | [9] 88 % of control | [4] 86 % of control

OCCN1CCN(CC/C=C2\c3ccccc3COc3ccc(Cl)cc32)CC1
inactive: dose: 2.0 mg/kg/injection, schedule: Q01DX009 (ip), vehicle: saline 105 % of control | dose: 4.0 mg/kg/injection, schedule: Q01DX009 (ip), vehicle: saline 113 % of control

O=S(=O)([O-])NC1CCCCC1.O=S(=O)([O-])NC1CCCCC1.[Hg+2].[Hg+2].[Hg+2].[O-2].[O-2]
inactive: dose: 0.12 mg/kg/injection, schedule: Q01DX009 (ip), vehicle: saline 98 % of control | dose: 0.25 mg/kg/injection, schedule: Q01DX009 (ip), vehicle: saline 105 % of control | dose: 0.5 mg/kg/injection, schedule: Q01DX009 (ip), vehicle: saline 98 % of control | dose: 1.0 mg/kg/injection, schedule: Q01DX009 (ip), vehicle: saline 90 % of control

CCC(N)Cc1ccc(OC)c(OC)c1 (stereo not drawn)
inactive: [11] 97 % of control | [12] 102 % of control | [13] 105 % of control

Cc1cc(C(=O)NNC(C)Cc2ccccc2)no1 (stereo not drawn)
inactive: dose: 4.6 mg/kg/injection, schedule: Q01DX009 (ip), vehicle: saline 95 % of control | dose: 9.3 mg/kg/injection, schedule: Q01DX009 (ip), vehicle: saline 100 % of control | dose: 18.75 mg/kg/injection, schedule: Q01DX009 (ip), vehicle: saline 102 % of control | dose: 37.5 mg/kg/injection, schedule: Q01DX009 (ip), vehicle: saline 120 % of control

CC[C@H](C)[C@H](NC(=O)OC(C)(C)C)C(=O)ON1C(=O)CCC1=O
inactive: [9] 92 % of control | [4] 97 % of control | [5] 90 % of control

CNC(=S)N/N=C/CCC/C=N/NC(=S)NC
inactive: dose: 15.9 mg/kg/injection, schedule: Q01DX009 (ip), vehicle: saline with Tween-80 88 % of control | dose: 31.8 mg/kg/injection, schedule: Q01DX009 (ip), vehicle: saline with Tween-80 92 % of control

CNC1C(OC2C(OC3C(O)C(O)C(N=C(N)N)C(O)C3N=C(N)N)OC(C)C2(O)C=O)OC(CO)C(O)C1O (stereo not drawn)
inactive: dose: 100.0 mg/kg/injection, schedule: Q01DX009 (ip), vehicle: water 110 % of control | dose: 200.0 mg/kg/injection, schedule: Q01DX009 (ip), vehicle: water 108 % of control
